Read-outs that look alike come from different tables or passages of the source.
Tests used:
Platypus Mel1C [1] = target: T1, Platypus Mel1C (Ornithorhynchus anatinus, UniProt A0A2P1K6N2); experiment: 2-[125I]-iodomelatonin competition binding, transiently transfected COS7 cells, platypus Mel1c; details: COS7 cells transiently transfected with Mel1c gene; radioligand 2-[125I]-iodomelatonin; two transfections, triplicate
Protocol: (§1) COS7 cells obtained from the American Type Culture Collection were maintained in DMEM GlutaMAX (Thermo Fisher Scientific, Waltham, USA) supplemented with 10% (v/v) fetal calf serum. Nucleofection of COS7 cells was performed according to the manufacturer's instructions using the Nucleofector machine (Amaxa, Cologne, Germany). Adherent COS7 cells were washed in phosphate-buffered saline (PBS), trypsinized, and gently resuspended in V nucleofection solution to a final concentration of 7 × 10^6 cells/100 μl. Next, 5 μg of pCIneo/Mel1c vector was mixed with 100 μl of the COS7 cell suspension, transferred to a […] electroporation cuvette, and nucleofected using program A024 and an Amaxa Nucleofector apparatus. Just after the nucleofection, 500 μl of media supplemented with 20% (v/v) fetal calf serum was added to the cell suspension and cultured in a humidified 37°C, 5% CO2 incubator for 20 minutes. Fourteen million cells were transferred to a T225 flask containing 50 ml of media supplemented with 20% (v/v) fetal calf serum and cultured in a humidified 37°C, 5% CO2 incubator. Two days after transfection, the cells were harvested in PBS, pelleted, and stored at -80°C until use.
(§2) This approach has been described very often by our laboratory and others. […] The results were expressed as Ki, taking into account the concentration of radioligand used in each experiment. […] The reaction was stopped by rapid filtration through GF/B Unifilters, followed by three successive washes with ice-cold buffer. Data were analyzed by using the program PRISM (GraphPad Software Inc., San Diego, CA). For saturation assays, the density of binding sites (Bmax) and the dissociation constant of the radioligand (KD) were calculated according to the Scatchard method. […] A similar protocol was used when the binding was performed on whole cells, as described by Legros et al.. As per Plos One policy, all the raw data–listings from radioactivity counter are attached as raw files (Supplementary Tables A to M in S1 Data).
(§3) To obtain stable expression of the receptor for future studies, a preliminary step involving transient expression of the receptor was performed. The Mel1c receptors from the three species were expressed in transiently transfected COS7 cells. A limited number of compounds were tested in order to gain a preliminary perception of the characteristics of Mel1c from these species.

X. laevis Mel1c receptor = target: T2, X. laevis Mel1c receptor (Xenopus laevis, UniProt P49219); experiment: 2-[125I]-iodomelatonin competition binding, transiently transfected COS7 cells, Xenopus Mel1c; details: COS7 cells transiently transfected with Mel1c gene; radioligand 2-[125I]-iodomelatonin; two transfections, triplicate; read-out: pKi Xenopus laevis (converted)
T2 construct: expressed in transfected cells; host or cells: COS7 (transient nucleofection, pCIneo vector)
T2 sequence (P49219 1-354 isoform P49219-2): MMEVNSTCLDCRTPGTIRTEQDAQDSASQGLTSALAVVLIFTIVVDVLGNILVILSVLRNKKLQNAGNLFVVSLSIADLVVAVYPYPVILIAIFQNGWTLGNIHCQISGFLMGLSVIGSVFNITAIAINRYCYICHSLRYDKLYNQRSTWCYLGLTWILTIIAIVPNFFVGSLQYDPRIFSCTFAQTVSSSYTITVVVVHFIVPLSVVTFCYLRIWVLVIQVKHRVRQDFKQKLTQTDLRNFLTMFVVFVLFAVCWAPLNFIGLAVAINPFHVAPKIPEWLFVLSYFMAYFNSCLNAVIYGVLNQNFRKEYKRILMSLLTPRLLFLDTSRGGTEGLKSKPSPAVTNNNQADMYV
Protocol: as §1, §2, §3

quinone reductase 2; QR2 = system: quinone reductase 2; QR2; parameters: method as in PMID 10913150; details: introduction statement, 'in the 10 μM range'; cited from earlier work
GPR50 = details: mammalian melatonin-related receptor; cited from earlier work
Xenopus Mel1C = target: T3, Xenopus Mel1C (Xenopus laevis, UniProt P49219); experiment: 2-[125I]-iodomelatonin competition binding, membranes from stably transfected CHO cells, Xenopus Mel1c; details: radioligand 2-[125I]-iodomelatonin
T3 construct: expressed in transfected cells
T3 sequence (P49219 1-420): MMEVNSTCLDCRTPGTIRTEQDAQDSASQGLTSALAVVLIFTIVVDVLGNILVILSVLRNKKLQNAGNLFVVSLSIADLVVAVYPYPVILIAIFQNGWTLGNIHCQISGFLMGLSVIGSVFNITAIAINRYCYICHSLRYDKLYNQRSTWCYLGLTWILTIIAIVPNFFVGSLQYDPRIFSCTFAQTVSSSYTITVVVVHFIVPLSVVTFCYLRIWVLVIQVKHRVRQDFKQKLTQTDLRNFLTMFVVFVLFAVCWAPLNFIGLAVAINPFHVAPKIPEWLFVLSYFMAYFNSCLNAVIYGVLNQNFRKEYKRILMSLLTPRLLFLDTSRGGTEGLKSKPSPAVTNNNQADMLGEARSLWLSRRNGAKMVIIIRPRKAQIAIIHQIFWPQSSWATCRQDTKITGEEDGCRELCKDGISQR
Protocol: (§4) CHO-Flp-In cells (Thermo Fisher Scientific, Waltham, USA) were cultivated in the presence of zeocin (0.1 mg/ml). The cells were cotransfected with either platypus (cloned sequence that will be submitted to GenBank) Mel1c/pcDNA5-FRT (platypus Mel1c) or X. laevis (NM 001087919.1) Mel1c/pcDNA5-FRT (clawed frog Mel1c) and Flp recombinase expression pOG44 plasmid using PEIpro (Invitrogen, Carlsbad, CA). CHO cells stably expressing platypus Mel1c or clawed frog Mel1c were selected using hygromycin (0.6 mg/ml). CHO-Flp-In-platypus Mel1c cells were grown in HAM F12 with 2 mM glutamine and supplemented with 10% fetal calf serum. Cells were selected using antibiotic pressure (hygromycin) for 72 h. […] After confirmation of the presence of the transgene, the cells were amplified up to 2 x 10^9 cells. This material was used to prepare the cell membranes used in further pharmacological experiments.
(§5) This standard procedure was described in a previous experiment with CHO cells expressing the sheep MT2 receptor [23]. […] The resulting pellet was suspended in 5 mM Tris/HCl (pH 7.4) containing 2 mM EDTA and homogenized using a Kinematica polytron. The homogenate was then centrifuged (20,000g, 30 min, 4°C) and the resulting pellet suspended in 75 mM Tris/HCl (pH 7.4) containing 2 mM EDTA and 12.5 mM MgCl2. The protein content was determined according to the method of Lowry et al. using the Bio-Rad kit (Bio-Rad SA, Ivry-sur-Seine, France). Aliquots of membrane preparations were stored in binding buffer (50 mM Tris/HCl, pH 7.4 containing 5 mM MgCl2 and 1 mM EDTA) at –80°C until use.
as §2

MT2 = details: introduction statement; cited from earlier work
MT1 = details: introduction statement; cited from earlier work
Platypus Mel1C [2] = target: T1, Platypus Mel1C; experiment: 2-[125I]-iodomelatonin competition binding, membranes from stably transfected CHO cells, platypus Mel1c
Protocol: as §4, §5, §2

G. gallus Mel1c receptor = target: T4, G. gallus Mel1c receptor (Gallus gallus, UniProt P49288); experiment: 2-[125I]-iodomelatonin competition binding, transiently transfected COS7 cells, chicken Mel1c
T4 construct: expressed in transfected cells; host or cells: COS7 (transient nucleofection, pCIneo vector)
T4 sequence (P49288 1-346): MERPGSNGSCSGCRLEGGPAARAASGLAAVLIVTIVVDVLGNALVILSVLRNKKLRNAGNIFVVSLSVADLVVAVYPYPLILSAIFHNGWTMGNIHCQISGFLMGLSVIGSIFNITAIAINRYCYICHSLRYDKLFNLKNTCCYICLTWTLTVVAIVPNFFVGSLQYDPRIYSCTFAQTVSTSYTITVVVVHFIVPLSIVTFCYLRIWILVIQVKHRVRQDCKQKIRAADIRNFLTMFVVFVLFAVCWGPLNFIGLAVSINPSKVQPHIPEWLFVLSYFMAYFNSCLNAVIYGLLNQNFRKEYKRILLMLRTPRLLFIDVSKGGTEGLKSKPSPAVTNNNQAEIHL
Protocol: as §1, §2, §3

hMT1 = hMT1 (Homo sapiens, UniProt P48039); experiment: 2-[125I]-iodomelatonin competition binding, human MT1; parameters: hMT1: unit not given here; details: membranes from stably transfected CHO cells; radioligand 2-[125I]-iodomelatonin
Sequence of hMT1 (P48039 whole entry): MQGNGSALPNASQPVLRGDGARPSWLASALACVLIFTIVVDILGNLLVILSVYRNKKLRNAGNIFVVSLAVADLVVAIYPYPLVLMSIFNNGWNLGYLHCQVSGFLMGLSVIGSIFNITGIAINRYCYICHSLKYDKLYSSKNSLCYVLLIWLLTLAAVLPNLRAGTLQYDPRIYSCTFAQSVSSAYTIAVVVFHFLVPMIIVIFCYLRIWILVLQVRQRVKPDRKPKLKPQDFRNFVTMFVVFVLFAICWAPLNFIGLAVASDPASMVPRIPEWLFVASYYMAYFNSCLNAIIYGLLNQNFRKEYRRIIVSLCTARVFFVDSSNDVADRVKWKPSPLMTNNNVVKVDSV
Protocol: as §2

hMT2 = target: T5, hMT2 (Homo sapiens, UniProt P49286); experiment: 2-[125I]-iodomelatonin competition binding, human MT2; details: membranes from stably transfected CHO cells; radioligand 2-[125I]-iodomelatonin; read-out: hMT2 (converted)
T5 sequence (P49286 1-362): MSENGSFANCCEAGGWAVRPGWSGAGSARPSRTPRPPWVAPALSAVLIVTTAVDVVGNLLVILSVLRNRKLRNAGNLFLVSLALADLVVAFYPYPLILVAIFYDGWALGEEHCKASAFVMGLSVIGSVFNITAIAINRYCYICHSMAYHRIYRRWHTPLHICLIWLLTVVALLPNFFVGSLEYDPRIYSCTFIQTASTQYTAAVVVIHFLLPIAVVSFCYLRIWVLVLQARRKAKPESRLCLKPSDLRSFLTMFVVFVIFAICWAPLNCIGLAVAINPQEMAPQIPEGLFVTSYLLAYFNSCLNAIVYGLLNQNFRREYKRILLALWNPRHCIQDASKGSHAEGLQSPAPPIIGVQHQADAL
Protocol: as §2

[3] = membranes from stably transfected CHO cells, radioligand 2-[125I]-iodomelatonin, read-out: Platypus Mel1C (converted)

T1 sequence (A0A2P1K6N2 1-349): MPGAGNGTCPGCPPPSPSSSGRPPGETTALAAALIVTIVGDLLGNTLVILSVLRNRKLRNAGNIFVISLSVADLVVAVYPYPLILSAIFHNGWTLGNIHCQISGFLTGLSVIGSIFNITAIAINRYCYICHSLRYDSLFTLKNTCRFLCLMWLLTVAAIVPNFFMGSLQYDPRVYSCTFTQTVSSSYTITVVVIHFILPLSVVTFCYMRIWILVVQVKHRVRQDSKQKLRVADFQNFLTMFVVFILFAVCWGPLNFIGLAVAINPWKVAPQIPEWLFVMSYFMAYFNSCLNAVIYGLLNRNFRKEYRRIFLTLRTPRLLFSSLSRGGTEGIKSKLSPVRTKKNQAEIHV

COc1ccc2[nH]cc(CCNC(C)=O)c2c1 [Melatonin]
pKi Ornithorhyncus anatinus (Platypus Mel1C [1]): 8.6 | Ki (X. laevis Mel1c receptor): 1.58 nM | affinity of QR2 for melatonin (quinone reductase 2; QR2): ~10 µM | melatonin binding to GPR50 (GPR50): does not bind melatonin | Ki (Xenopus Mel1C): 2 nM | affinity of MT2 for melatonin (MT2): ≤ 1 nM | affinity of MT1 for melatonin (MT1): ≤ 1 nM | Ki (Platypus Mel1C [2]; affinity of platypus Mel1c for melatonin, abstract statement, 'in the 1 nM range'): ~1 nM | Ki (Platypus Mel1C [2]; [3]): 2 nM

CC(=O)NCCc1c(Cc2ccccc2)[nH]c2ccccc12 [Luzindole, N-acetyl-2-benzyltryptamine]
Ki (G. gallus Mel1c receptor): 3.98 µM | pKi Ornithorhyncus anatinus (Platypus Mel1C [1]): 5.9 | Ki (X. laevis Mel1c receptor): 2000 nM | Ki (Xenopus Mel1C): 2510 nM | Ki (Platypus Mel1C [2]; [3]): 2510 nM | hMT1 (hMT1): 6.6 | Ki (hMT2): 25.1 nM

From PMC5846726, “Characterization of the Mel1c melatoninergic receptor in platypus (Ornithorhynchus anatinus)” (PLoS ONE, 2018)
